Results reported in publication PMC6155626 (Molecules : A Journal of Synthetic Chemistry and Natural …, 2016).
In brackets after ≈: the same amount, converted by molar mass. Several values for one entry are separate records, joined by “and”; a condition that tells them apart may be missing. Equal values may be shown once. Read-outs that look alike come from different tables or passages of the source.

How the values were obtained:
[1] = system: Xanthomonas oryzae pv. oryzae; conditions: X. oryzae, previously reported analog, cited from earlier work
[2] = system: Ralstonia solanacearum; conditions: R. solanacearum, previously reported analog, cited from earlier work
[3] = system: Xanthomonas oryzae pv. oryzae; test: microbe, parasite or virus in culture; assay type: cell-based; conditions: for Inhibition rate: average of three replicates; for inhibition at 100 µg/mL: read-out: Inhibition rate, X. oryzae, 100 μg/mL, average of three replicates; for inhibition at 200 µg/mL: read-out: Inhibition rate, X. oryzae, 200 μg/mL, average of three replicates
[4] = system: X. oryzae in rice plant; assay type: in vivo, Xanthomonas oryzae pv. oryzae; conditions: 200 μg/mL, 14 days after spraying
[5] = system: Ralstonia solanacearum; test: microbe, parasite or virus in culture; assay type: cell-based; conditions: for EC50 / Inhibition rate: R. solanacearum; for Inhibition rate: average of three replicates; for inhibition at 100 µg/mL / inhibition at 200 µg/mL: read-out: Inhibition rate
[6] = system: Xanthomonas axonopodis pv. citri; test: microbe, parasite or virus in culture; assay type: cell-based; conditions: for inhibition at 100 µg/mL / inhibition at 200 µg/mL: read-out: Inhibition rate
[7] = system: rice seeds (Fengyou Xiangzhan)
[8] = system: tobacco leaves; conditions: for Necrosis (lesion diameter) on tobacco leaves: Nicotiana benthamiana (tobacco)
[9] = system: X. oryzae in rice plant; conditions: 200 μg/mL; cited from earlier work
[10] = Fengyou Xiangzhan, rice, in vivo
[11] = 50 to 300 μM, four days after inoculation

Structure (SMILES) | Disease Index [4] | Morbidity [4] | Protective Efficiency [4] | EC50 ([3]; Xanthomonas oryzae) | inhibition at 100 µg/mL ([3]; Xanthomonas oryzae) | inhibition at 200 µg/mL ([3]; Xanthomonas oryzae) | EC50 ([5]; Ralstonia solanacearum) | inhibition at 100 µg/mL ([5]; Ralstonia solanacearum) | inhibition at 200 µg/mL ([5]; Ralstonia solanacearum) | EC50 ([6]; Xanthomonas axonopodis) | inhibition at 100 µg/mL ([6]; Xanthomonas axonopodis) | inhibition at 200 µg/mL ([6]; Xanthomonas axonopodis) | Necrosis (lesion diameter) on tobacco leaves ([8]; in vivo) | Phytotoxic effect on tobacco plant (in words) ([8]; in vivo) | also measured
CS(=O)(=O)c1nnc(Cc2ccc(Cl)cc2)o1 [C00001 (R = 4-Cl, X = CH2)] |  |  |  |  |  |  |  |  |  |  |  |  |  |  | EC50 ([1]; X = CH2): 12.23 ± 1.45 ^15 μg/mL
CS(=O)(=O)c1nnc(-c2ccc(F)cc2)o1 [C00001 (R = F, X = No Atom), 2-(4-fluorophenzyl)-5-(methylsulfonyl)-1,3,4-oxadiazole] |  |  |  |  |  |  |  |  |  |  |  |  |  |  | EC50 ([2]; X = No Atom): 8.29 ± 0.56 ^14 μg/mL; EC50 ([1]; X = No Atom): 9.89 ± 1.52 ^16 μg/mL
CS(=O)(=O)c1nnc(-c2ccc(Cl)cc2)o1 [C00001 (R = 4-Cl, X = No Atom)] |  |  |  |  |  |  |  |  |  |  |  |  |  |  | EC50 ([2]; X = No Atom): 120.90 ± 2.6 ^14 μg/mL; EC50 ([1]; X = No Atom): 23.21 ± 0.98 ^16 μg/mL
Nc1nnc([S-])s1.Nc1nnc([S-])s1.[Cu+2] [Thiodiazole-copper, 2-amino-5-mercapto-1,3,4-thiadiazole-copper, reference compound] | 55.6 | 100.0% | 32.0 ± 3.0% |  |  |  |  |  |  |  |  |  |  |  | EC50 ([3]; X. oryzae): 121.82 ± 3.59 µg/mL; Inhibition rate ([3]; X. oryzae, 100 μg/mL): 35%; Inhibition rate ([3]; X. oryzae, 200 μg/mL): 69%; Protective Efficiency ([4]; listed as Thiadiazole-copper): 32.0%; EC50 [5]: >200 µg/mL; Inhibition rate ([5]; 100 μg/mL): 35%; Inhibition rate ([5]; 200 μg/mL): 50%; EC50 [6]: 107.04 ± 1.96 µg/mL; Inhibition rate [6]: 65% and 47%
CS(=O)(=O)c1nnc(COc2ccc(Cl)cc2Cl)o1 [Compound 5I-4, 2-((2,4-Dichlorophenoxy)methyl)-5-(methylsulfonyl)-1,3,4-oxadiazole] |  | 100.0% |  | 0.72 ± 0.15 µg/mL (≈ 2.23 µM) | 100% | 100% | 20.5 ± 1.56 µg/mL (≈ 63.5 µM) | 100% | 100% | 49 ± 2.34 µg/mL | 48% | 69% | 0.2–0.3 cm | no or negligible phytotoxic effect | Phenotypic effect on rice seedlings, root growth and shoot development (in words) [7, 10]: severely inhibited both root growth and shoot development even at the lowest concentration 1 μM; Phenotypic effect on rice seedlings, root growth and shoot development (in words) ([7]; concentration (1–300 μM)): highly suppressed both root and shoot development
S=c1[nH]nc(NCNc2n[nH]c(=S)s2)s1 [Bismerthiazol, 5,5′-(methylenediimino)bis-1,3,4-Thiadiazole-2(3H)-thione, reference compound] | 60.0 | 100.0% | 25.6% and 25.6 ± 4.4% | 92.6 ± 2.15 µg/mL (≈ 333 µM) | 54% | 72% | 59.7 ± 2.56 µg/mL (≈ 214 µM) | 99% | 100% | 119 µg/mL | 45% | 67% | 0.2–0.3 cm | no or negligible phytotoxic effect | Control efficiency against rice bacterial leaf blight [9]: 25.49%; Concentration showing phytotoxicity on rice germination [7, 10]: 300 µM; EC50 [6]: 119.5 ± 5.1 µg/mL; EC50 ([6]; Xanthomonas axonopodis, read-out: Bactericidal EC50 in molar terms): ~333 µM
CS(=O)(=O)c1nnc(COc2ccc(Cl)cc2)o1 [Compound 5I-2, 2-((4-Chlorophenoxy)methyl)-5-(methylsulfonyl)-1,3,4-oxadiazole] | 23.8 | 100.0% | 77.7% and 77.7 ± 3.4% | 1.44 ± 0.18 µg/mL (≈ 4.99 µM) | 100% | 100% | 13.4 ± 1.54 µg/mL (≈ 46.5 µM) | 100% | 100% | 31.4 ± 3.56 µg/mL | 76% | 88% | 0.2–0.3 cm | no or negligible phytotoxic effect | melting point: 113 to 114 °C; Phenotypic effect on rice seedlings, root growth and shoot development (in words) ([7]; concentration (1–300 μM)): no apparently phytotoxicity; Phenotypic effect on rice seedlings, root growth and shoot development (in words) ([7]; in vivo): predominantly inhibited root growth while allowing moderate shoot development; Phytotoxic effect on tobacco plant (in words) [8, 11]: no apparently phytotoxicity
CS(=O)(=O)c1nnc(Cc2ccc(F)cc2)o1 [C00001 (R = F, X = CH2), 2-(4-fluorobenzyl)-5-(methylsulfonyl)-1,3,4-oxadiazole] |  |  |  |  |  |  |  |  |  |  |  |  |  |  | EC50 ([1]; X = CH2): 1.07 ± 0.68 ^15 μg/mL
CS(=O)(=O)c1nnc(COc2ccc(F)cc2)o1 [Compound 5I-1, 2-(4-Fluorophenoxymethyl)-5-(methylsulfonyl)-1,3,4-oxadiazole] | 15.6 | 100.0% | 90.4% and 90.4 ± 2.8% | 0.45 ± 0.06 µg/mL (≈ 1.65 µM) | 100% | 100% | 1.67 µg/mL (≈ 6.13 µM) | 100% | 100% | 80.5 ± 5.38 µg/mL | 72% | 80% | 0.2–0.3 cm | no or negligible phytotoxic effect | melting point: 108 to 110 °C; EC50 [5]: 1.97 ± 0.23 µg/mL (≈ 7.24 µM); Phenotypic effect on rice seedlings, root growth and shoot development (in words) [7, 10]: barely effected root growth or inhibited shoot development at concentration 1–100 μM; Phenotypic effect on rice seedlings, root growth and shoot development (in words) ([7]; concentration (1–300 μM)): no apparently phytotoxicity; Phytotoxic effect on tobacco plant (in words) [8, 11]: no apparently phytotoxicity
CS(=O)(=O)c1nnc(Cc2ccc(Cl)cc2Cl)o1 [C00001 (R = 2,4-di Cl, X = CH2)] |  |  |  |  |  |  |  |  |  |  |  |  |  |  | EC50 ([2]; X = CH2): 59.9 ^26 μg/mL; EC50 ([1]; X = CH2): 1.96 ± 0.99 ^15 μg/mL
CS(=O)(=O)c1nnc(-c2ccc(Cl)cc2Cl)o1 [C00001 (R = 2,4-di Cl, X = No Atom)] |  |  |  |  |  |  |  |  |  |  |  |  |  |  | EC50 ([2]; X = No Atom): 16.55 ± 1.12 ^14 μg/mL; EC50 ([1]; X = No Atom): 52.14 ± 1.05 ^16 μg/mL
